This is an account of results in US5156955A, “Nucleoside oxidase and assay method utilizing same” (priority 1988, dated 1992).

The test system of the first experiment is nucleoside oxidase YT-1. The experiment in a line: Substrate specificity test (nucleoside oxidase activity, oxygen consumption). The note with it: statement in words. Format: biochemical, Pseudomonas maltophilia LB-86.
Description: The consumption of 1 μM of oxygen per minute is taken as 1 unit (U).
Turning to `O=C[C@H](O)[C@H](O)[C@H](O)CO` [D-ribose], the “Substrate specificity (enzyme active / not active on substance)” value is “not active”. On to `O=c1[nH]cnc2nc[nH]c12` [Hypoxanthine], for which the “Substrate specificity (enzyme active / not active on substance)” value was “not active”.

The same experiment, now with this note: substrate 0.4 mM; relative to activity on inosine taken as 100.
Regarding `Nc1nc2nc[nH]c2c(=O)[nH]1` [Guanine], the Relative activity is 0%.

In the case of `O=c1[nH]c(=O)c2[nH]cnc2[nH]1` [Xanthine], the Relative activity is 0%.

The same experiment, now with this note: substrate 5.2 mM; relative to activity on inosine taken as 100.
Take `O=c1[nH]cnc2nc[nH]c12` [Hypoxanthine]: the Relative activity is listed as 0%.

Staying with this experiment, now noted: substrate 10 mM; relative to activity on inosine taken as 100.
Consider `Nc1ncnc2c1ncn2[C@@H]1O[C@H](COP(=O)(O)OP(=O)(O)O)[C@@H](O)[C@H]1O` [5'-ADP], for which the Relative activity worked out at 0%.

For `Nc1ncnc2c1ncn2[C@@H]1O[C@H](COP(=O)(O)O)[C@@H](O)[C@H]1O` [5'-AMP, 5'-adenosine monophosphate], the Relative activity was determined as 0%. As to `Nc1ncnc2c1ncn2[C@@H]1O[C@H](COP(=O)(O)OP(=O)(O)OP(=O)(O)O)[C@@H](O)[C@H]1O` [5'-ATP], the Relative activity is given as 0%. Turning to `Nc1nc2c(ncn2[C@@H]2O[C@H](COP(=O)(O)O)[C@@H](O)[C@H]2O)c(=O)[nH]1` [5'-GMP], the Relative activity was found to be 0%. On to `Nc1ncnc2nc[nH]c12` [Adenine], for which the Relative activity was determined as 0%. With `Nc1ncnc2c1ncn2[C@@H]1O[C@H](CO)[C@@H](O)[C@H]1O` [Adenosine], the Relative activity is 97.3%. On the same count and under the same terms, the value for `Nc1ccn([C@@H]2O[C@H](CO)[C@@H](O)[C@H]2O)c(=O)n1` [Cytidine] was 77.5%; that for `Nc1ncnc2c1ncn2[C@H]1C[C@H](O)[C@@H](CO)O1` [Deoxyadenosine] was 81.4%.

For the compound `Nc1nc2c(ncn2[C@H]2C[C@H](O)[C@@H](CO)O2)c(=O)[nH]1` [Deoxyguanosine], the Relative activity is 92.3%. Same read-out and setting: the value for `OC[C@H]1O[C@@H](n2cnc3c(O)ncnc32)C[C@@H]1O` [Deoxyinosine] was 80.7%; that for `Cc1cn([C@H]2C[C@H](O)[C@@H](CO)O2)c(=O)[nH]c1=O` [Deoxythymidine] was 77.3%. Take `Nc1nc2c(ncn2[C@@H]2O[C@H](CO)[C@@H](O)[C@H]2O)c(=O)[nH]1` [Guanosine]: the Relative activity is given as 121%. Regarding `Cc1cn([C@H]2C[C@H](O)[C@@H](CO)O2)c(=O)[nH]c1=O` [Thymidine], the Relative activity was found to be 55.8%. In the case of `O=c1ccn([C@@H]2O[C@H](CO)[C@@H](O)[C@H]2O)c(=O)[nH]1` [Uridine], the Relative activity is given as 92.8%. For the compound `O=c1[nH]c(=O)c2ncn([C@@H]3O[C@H](CO)[C@@H](O)[C@H]3O)c2[nH]1` [Xanthosine], the Relative activity came out at 125%.

Still in this experiment, the particulars now being: substrate 20 mM; relative to activity on inosine taken as 100.
As for `O=CC[C@H](O)[C@H](O)CO` [2-Deoxy-D-ribose], the Relative activity was 0%. Turning to `Nc1cc[nH]c(=O)n1` [Cytosine], the Relative activity amounted to 0%. For `O=P(O)(O)OC1O[C@H](CO)[C@@H](O)[C@H]1O` (stereo partly drawn) [D-ribose-1-phosphoric acid], the Relative activity is on record as 0%. As for `O=P(O)(O)OC[C@H]1OC(O)[C@H](O)[C@@H]1O` (stereo partly drawn) [D-ribose-5-phosphoric acid], the Relative activity is on record as 0%. For `O=C[C@H](O)[C@H](O)[C@H](O)CO` [D-ribose], the Relative activity stood at 0%. Regarding `Cc1c[nH]c(=O)[nH]c1=O` [Thymine], the Relative activity is given as 0%. Consider `O=c1cc[nH]c(=O)[nH]1` [Uracil], for which the Relative activity was determined as 0%.

Another experiment concerns nucleoside oxidase YT-1.
Test: not given
Format: biochemical, Pseudomonas maltophilia LB-86. The note with it: inhibitor 1 mM; enzyme 0.02 U on inosine, pH 6.0, 25° C., 10 minutes. On the procedure: A solution of the present enzyme (0.02 U) was caused to act on inosine at pH 6.0 and 25° C. for 10 minutes in the presence of various inhibitors, and the enzymatic activity was thereafter measured.
Consider `[Cl][Hg][Cl]` [HgCl2], for which the Relative activity stood at 69.2%. `NN.O=S(=O)(O)O` [Hydrazine sulfate]: the Relative activity is 101%. On to `NO` [Hydroxylamine], for which the Relative activity was found to be 87.8%. As for `O=C1CCC(=O)N1Br` [N-Bromosuccinimide], the Relative activity was 0%. In the case of `CC(=O)[O-].CC(=O)[O-].[Pb+2]` [Pb(CH3 COO)2], the Relative activity came to 81.3%. On to `O=S(=O)(F)Cc1ccccc1` [Phenylmethylsulfonyl fluoride], for which the Relative activity turned out to be 95.3%. As for `N#CO` [Potassium cyanate], the Relative activity is on record as 34.8%.

Consider `CCN(CC)CCCC(C)Nc1c2ccc(Cl)cc2nc2ccc(OC)cc12` (centres unmarked) [Quinacrine], for which the Relative activity was found to be 95.6%. As to `CCN(CC)C(=S)S` [Sodium N,N'-Diethylditiocarbamate, Sodium N,N'-Diethylditio-carbamate], the Relative activity came out at 271%. With `[N-]=[N+]=[N-]` [Sodium azide], the Relative activity turned out to be 81.5%. On the same count and under the same terms, for `c1cnc2c(c1)ccc1cccnc12` [o-Phenanthroline] the value was 94.7%; for `c1ccc(-c2ccccn2)nc1` [α,α'-Dipyridyl], 96.7%. With Mercury p-chorobenzoate, the Relative activity came to 98.9%.

The experiment is the same for the next values; noted with them: inhibitor 10 mM; enzyme 0.02 U on inosine, pH 6.0, 25° C., 10 minutes.
Turning to `NO` [Hydroxylamine], the Relative activity amounted to 63.2%. The same measure, in the same setting: for `N#CO` [Potassium cyanate] the value was 0%. Regarding `[N-]=[N+]=[N-]` [Sodium azide], the Relative activity was 45.6%.

Still in this experiment, the particulars now being: nucleoside oxidase yt-1, pH 6, 10 min, 1000 µM.
Consider `O=C(O)CN(CCN(CC(=O)O)CC(=O)O)CC(=O)O` [EDTA], for which the Relative activity is listed as 101%. On the same count and under the same terms, the value for `O=C(O)CI` [Iodoacetic acid] was 100%.

The same experiment, now with this note: statement in words.
`O=C1CCC(=O)N1Br` [N-Bromosuccinimide]: the “Effect of inhibitor (enzyme inhibited)” value is given as “inhibited”.

Consider `N#CO` [Potassium cyanate], for which the “Effect of inhibitor (enzyme inhibited)” value is “inhibited”.

As for `[N-]=[N+]=[N-]` [Sodium azide], the “Effect of inhibitor (enzyme inhibited)” value is listed as “inhibited”.

Still in this experiment, the particulars now being: statement in words; listed as potassium cianate.
In the case of `N#CO` [Potassium cyanate], the “Effect of inhibitor (enzyme inhibited)” value is recorded as “Inhibited”.

A further experiment deals with nucleoside oxidase YT-1. The experiment in a line: Specificity test on laccase substrate (laccase-like activity in presence of inosine). Format: biochemical, Pseudomonas maltophilia LB-86. The note with it: 1 mM laccase substrate, 7 mM inosine, one unit enzyme, 5 minutes. On the procedure: The present enzyme was tested for the substrate specificity of its laccase-like activity in the presence of 7 mM inosine in the following manner. One unit of the present enzyme was added to a specimen containing 7 mM of inosine and 1 mM of the laccase substrate shown in Table 5, and the mixture was allowed to stand for 5 minutes. The absorption spectrum of the specimen was obtained before and after the addition of the enzyme.
As to `O=C(O)/C=C/c1ccc(O)c(O)c1` [Caffeic acid], the “Change in absorption spectrum due to reaction” value (from here on “Change … to reaction”) is “New peak at 310 nm”.

As for `Cc1cc(O)cc(O)c1` [Orcinol], the “Change … to reaction” value was “New peak at 340 nm”. Take `Oc1cccc(O)c1O` [Pyrogallol]: the “Change … to reaction” value is “New peak at 370 nm”. Still for that read-out and setting: for `Nc1ccc(O)cc1` [p-Aminophenol] the value was “New peak at 360 nm”; for `Nc1ccc(N)cc1` [p-Phenylendiamine], “New peak at 490 nm”. Consider `O=C1C=CC(=O)C=C1` [p-Quinone], for which the “Change … to reaction” value is “No change”.

The subject of another experiment is nucleoside oxidase YT-1. The experiment in a line: Enzymatic activity test I: oxidation reaction products and stoichiometry. It counts as biochemical, Pseudomonas maltophilia LB-86. The note with it: 100 nanomoles of P-1, one U enzyme, 1 ml 100 mM phosphate buffer. How it is done:
During a reaction period of 0 to 800 minutes, the reaction muxture was partly collected at suitable time intervals and analyzed by high performance liquid chromatography (HPLC) with a column of Fine SIL C18 (product of Japan Spectroscopic Co., Ltd.) using as a solvent 50 mM phosphate buffer (pH 3.0)/methanol=95/5 at a flow rate of 1.5 ml/min. Absorption was detected at 260 nm.
The amount of oxygen consumption was determined by an oxygen electrode, the amount of P-2 produced from the peak area of HPLC, and the amount of hydrogen peroxide by the phenol-4-aminoantipyrine peroxidase method and the ferrithiocyanide method (Ronald Thurman et al., Eur. J. Biochem., 25, 420-430 (1972)).
As to `O=C[C@H]1O[C@@H](n2cnc3c(=O)[nH]cnc32)[C@H](O)[C@@H]1O` [P-1, inosine-5'-aldehyde], the oxygen consumption was determined as 48 nmol.

The same experiment, now with this note: 100 nanomoles of P-1 as substrate.
Turning to `O=C[C@H]1O[C@@H](n2cnc3c(=O)[nH]cnc32)[C@H](O)[C@@H]1O` [P-1, inosine-5'-aldehyde], the hydrogen peroxide formed result is “No hydrogen peroxide was detected”.

The same experiment, now with this note: from 100 nanomoles of P-1, one U enzyme.
Compound `O=C[C@H]1O[C@@H](n2cnc3c(=O)[nH]cnc32)[C@H](O)[C@@H]1O` [P-1, inosine-5'-aldehyde] displayed a P-2 produced of 97 nmol.

Staying with this experiment, now noted: peak separated off by HPLC and reacted with enzyme.
For the compound `O=C[C@H]1O[C@@H](n2cnc3c(=O)[nH]cnc32)[C@H](O)[C@@H]1O` [P-1, inosine-5'-aldehyde], the “change on reaction with the enzyme sample (HPLC)” value is “changed into P-2 with consumption of oxygen”. Consider `O=C(O)[C@H]1O[C@@H](n2cnc3c(=O)[nH]cnc32)[C@H](O)[C@@H]1O` [P-2, inosine-5'-carboxylic acid], for which the “change on reaction with the enzyme sample (HPLC)” value is “exhibited no change”.

The subject of a further experiment is nucleoside oxidase YT-1. The experiment is described as follows: Influence of metal ions on the activity. It counts as biochemical, Pseudomonas maltophilia LB-86. The note with it: metal salt 0.1 mM; enzyme 0.02 U on inosine, pH 6.0, 25° C., 10 minutes. On the procedure: A solution of the enzyme (0.02 U) was caused to act on inosine at pH 6.0 and 25° C. for 10 minutes in the presence of various metal ions, and the activity of the enzyme was thereafter measured to check the influence of the metal ions on the activity.
With `[Cl-].[Cl-].[Co+2]` [CoCl2], the Relative activity is reported as 103%. With `O=S(=O)([O-])[O-].[Fe+2]` [FeSO4], the Relative activity was 93.4%. Consider `O=S(=O)([O-])[O-].[Mg+2]` [MgSO4], for which the Relative activity is recorded as 102%. On the same count and under the same terms, the value for `O=S(=O)([O-])[O-].[Mn+2]` [MnSO4] was 103%; that for `O=S(=O)([O-])[O-].[Zn+2]` [ZnSO4] was 106%. Consider (NH4)6 Mo7 O24, for which the Relative activity is 106%.

Still in this experiment, the particulars now being: metal salt 1.0 mM; enzyme 0.02 U on inosine, pH 6.0, 25° C., 10 minutes.
As to `O=S(=O)([O-])[O-].[Zn+2]` [ZnSO4], the Relative activity was 98.9%.

For the compound (NH4)6 Mo7 O24, the Relative activity is 102%.
